Some results are limits rather than exact numbers.

This assay deals with RS4;11 cells. The assay can be described thus: Cell viability assay (CellTiter-Glo) in RS4;11 cells. Format: cell-based. The settings on record: Homo sapiens, 72 h; RS4;11 cells; cell viability, 3 days, CellTiter-Glo; read-out: IC50. In a few lines:
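Three-day compound treatment of RS4;11 ALL cells (5000/well, 3-fold dilution series of 8 or 12 points), with IC50 from a nonlinear least-squares fit to CellTiter-Glo viability data.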
(In general: Cellular ATP, detected with luciferase, serves as a proxy for viable cell number.)
`O=C1CCC(N2C(=O)c3cccc(NCCOCCOCCOCCOCCC(=O)N4CCC(n5cc(-c6cnc7cccc(-c8cc(F)c(CN9CCOCC9)c(F)c8)c7n6)cn5)CC4)c3C2=O)C(=O)N1` (stereo not drawn) [JA-047, 4-[2-[2-[2-[2-[3-[4-[4-[8-[3,5-Difluoro-4-(morpholinomethyl)phenyl]quinoxalin-2-yl]pyrazol-1-yl]-1-piperidyl]-3-oxo-propoxy]ethoxy]ethoxy]ethoxy]ethylamino]-2-(2,6-dioxo-3-piperidyl)isoindoline-1,3-dione]: the 50% inhibitory concentration (IC50) (usually the concentration that inhibits the measured activity by half) worked out at 3.44 µM.

On to `Cc1ncsc1-c1ccc(CNC(=O)[C@@H]2C[C@@H](O)CN2C(=O)[C@@H](NC(=O)CCCCCC(=O)N2CCC(n3cc(-c4cnc5cccc(-c6cc(F)c(CN7CCOCC7)c(F)c6)c5n4)cn3)CC2)C(C)(C)C)cc1` [JA-048, (2S,4R)-1-[(2S)-2-[[7-[4-[4-[8-[3,5-Difluoro-4-(morpholinomethyl)phenyl]quinoxalin-2-yl]pyrazol-1-yl]-1-piperidyl]-7-oxo-heptanoyl]amino]-3,3-dimethyl-butanoyl]-4-hydroxy-N-[[4-(4-methylthiazol-5-yl)phenyl]methyl]pyrrolidine-2-carboxamide], for which the IC50 was more than 10 µM.

As to `O=C1CCC(N2C(=O)c3cccc(NCCOCCOCCOCCC(=O)N4CCC(n5cc(-c6cnc7cccc(-c8cc(F)c(CN9CCOCC9)c(F)c8)c7n6)cn5)CC4)c3C2=O)C(=O)N1` (stereo not drawn) [JA-049, 4-[2-[2-[2-[3-[4-[4-[8-[3,5-Difluoro-4-(morpholinomethyl)phenyl]quinoxalin-2-yl]pyrazol-1-yl]-1-piperidyl]-3-oxo-propoxy]ethoxy]ethoxy]ethylamino]-2-(2,6-dioxo-3-piperidyl)isoindoline-1,3-dione], the 50% inhibitory concentration (IC50) was determined as 1.27 µM.

Regarding `Cc1ncsc1-c1ccc(CNC(=O)[C@@H]2C[C@@H](O)CN2C(=O)[C@@H](NC(=O)CCOCCOCCOCCC(=O)N2CCC(n3cc(-c4cnc5cccc(-c6cc(F)c(CN7CCOCC7)c(F)c6)c5n4)cn3)CC2)C(C)(C)C)cc1` [JA-050, (2S,4R)-1-[(2S)-2-[3-[2-[2-[3-[4-[4-[8-[3,5-Difluoro-4-(morpholinomethyl)phenyl]quinoxalin-2-yl]pyrazol-1-yl]-1-piperidyl]-3-oxo-propoxy]ethoxy]ethoxy]propanoylamino]-3,3-dimethyl-butanoyl]-4-hydroxy-N-[[4-(4-methylthiazol-5-yl)phenyl]methyl]pyrrolidine-2-carboxamide], the IC50 was more than 10 µM.

In the case of `Cc1ncsc1-c1ccc(CNC(=O)[C@@H]2C[C@@H](O)CN2C(=O)[C@@H](NC(=O)CCCCCCCC(=O)N2CCC(n3cc(-c4cnc5cccc(-c6cc(F)c(CN7CCOCC7)c(F)c6)c5n4)cn3)CC2)C(C)(C)C)cc1` [JA-051, (2S,4R)-1-[(2S)-2-[[9-[4-[4-[8-[3,5-Difluoro-4-(morpholinomethyl)phenyl]quinoxalin-2-yl]pyrazol-1-yl]-1-piperidyl]-9-oxo-nonanoyl]amino]-3,3-dimethyl-butanoyl]-4-hydroxy-N-[[4-(4-methylthiazol-5-yl)phenyl]methyl]pyrrolidine-2-carboxamide], the half-maximal inhibitory concentration (IC50) came to 4.64 µM.

`Cc1ncsc1-c1ccc(CNC(=O)[C@@H]2C[C@@H](O)CN2C(=O)[C@@H](NC(=O)CCCCCCC(=O)N2CCC(n3cc(-c4cnc5cccc(-c6cc(F)c(CN7CCOCC7)c(F)c6)c5n4)cn3)CC2)C(C)(C)C)cc1` [JA-052, (2S,4R)-1-[1 (2S)-2-[[8-[4-[4-[8-[3,5-Difluoro-4-(morpholinomethyl)phenyl]quinoxalin-2-yl]pyrazol-1-yl]-1-piperidyl]-8-oxo-octanoyl]amino]-3,3-dimethyl-butanoyl]-4-hydroxy-N-[[14-(4-methylthiazol-5-yl)phenyl]methyl]pyrrolidine-2-carboxamide]: the IC50 is more than 10 µM.

`Cc1ncsc1-c1ccc(CNC(=O)[C@@H]2C[C@@H](O)CN2C(=O)[C@@H](NC(=O)COCCOCCOCC(=O)N2CCC(n3cc(-c4cnc5cccc(-c6cc(F)c(CN7CCOCC7)c(F)c6)c5n4)cn3)CC2)C(C)(C)C)cc1` [JA-053, (2S,4R)-1-[(2S)-2-[[2-[2-[2-[2-[4-[4-[8-[3,5-Difluoro-4-(morpholinomethyl)phenyl]quinoxalin-2-yl]pyrazol-1-yl]-1-piperidyl]-2-oxo-ethoxy]ethoxy]ethoxy]acetyl]amino]-3,3-dimethyl-butanoyl]-4-hydroxy-N-[[4-(4-methylthiazol-5-yl)phenyl]methyl]pyrrolidine-2-carboxamide]: the IC50 was more than 10 µM.

Consider `Cc1ncsc1-c1ccc(CNC(=O)[C@@H]2C[C@@H](O)CN2C(=O)[C@@H](NC(=O)COCCOCC(=O)N2CCC(n3cc(-c4cnc5cccc(-c6cc(F)c(CN7CCOCC7)c(F)c6)c5n4)cn3)CC2)C(C)(C)C)cc1` [JA-054, (2S,4R)-1-[(2S)-2-[[2-[2-[2-[4-[4-[8-[3,5-Difluoro-4-(morpholinomethyl)phenyl]quinoxalin-2-yl]pyrazol-1-yl]-1-piperidyl]-2-oxo-ethoxy]ethoxy]acetyl]amino]-3,3-dimethyl-butanoyl]-4-hydroxy-N-[[4-(4-methylthiazol-5-yl)phenyl]methyl]pyrrolidine-2-carboxamide], for which the IC50 is more than 10 µM.

With `Cc1ncsc1-c1ccc(CNC(=O)[C@@H]2C[C@@H](O)CN2C(=O)[C@@H](NC(=O)COCCOCCOCCOCCOCC(=O)N2CCC(n3cc(-c4cnc5cccc(-c6cc(F)c(CN7CCOCC7)c(F)c6)c5n4)cn3)CC2)C(C)(C)C)cc1` [JA-055, (2S,4R)-1-[(2S)-2-[[2-[2-[2-[2-[2-[2-[4-[4-[8-[3,5-Difluoro-4-(morpholinomethyl)phenyl]quinoxalin-2-yl]pyrazol-1-yl]-1-piperidyl]-2-oxo-ethoxy]ethoxy]ethoxy]ethoxy]ethoxy]acetyl]amino]-3,3-dimethyl-butanoyl]-4-hydroxy-N-[[4-(4-methylthiazol-5-yl)phenyl]methyl]pyrrolidine-2-carboxamide], the IC50 is more than 10 µM.

On to `Cc1ncsc1-c1ccc(CNC(=O)[C@@H]2C[C@@H](O)CN2C(=O)[C@@H](NC(=O)CCOCCOCCC(=O)N2CCC(n3cc(-c4cnc5cccc(-c6cc(F)c(CN7CCOCC7)c(F)c6)c5n4)cn3)CC2)C(C)(C)C)cc1` [JA-056, (2S,4R)-1-[(2S)-2-[3-[2-[3-[4-[4-[8-[3,5-Difluoro-4-(morpholinomethyl)phenyl]quinoxalin-2-yl]pyrazol-1-yl]-1-piperidyl]-3-oxo-propoxy]ethoxy]propanoylamino]-3,3-dimethyl-butanoyl]-4-hydroxy-N-[[4-(4-methylthiazol-5-yl)phenyl]methyl]pyrrolidine-2-carboxamide], for which the concentration for half-maximal inhibition (IC50) was more than 10 µM.

On to `Cc1ncsc1-c1ccc(CNC(=O)[C@@H]2C[C@@H](O)CN2C(=O)[C@@H](NC(=O)COCC(=O)N2CCC(n3cc(-c4cnc5cccc(-c6cc(F)c(CN7CCOCC7)c(F)c6)c5n4)cn3)CC2)C(C)(C)C)cc1` [JA-057, (2S,4R)-1-[(2S)-2-[[2-[2-[4-[4-[8-[3,5-Difluoro-4-(morpholinomethyl)phenyl]quinoxalin-2-yl]pyrazol-1-yl]-1-piperidyl]-2-oxo-ethoxy]acetyl]amino]-3,3-dimethyl-butanoyl]-4-hydroxy-N-[[4-(4-methylthiazol-5-yl)phenyl]methyl]pyrrolidine-2-carboxamide], for which the concentration for half-maximal inhibition (IC50) is more than 10 µM.

On to `Cc1ncsc1-c1ccc(CNC(=O)[C@@H]2C[C@@H](O)CN2C(=O)[C@@H](NC(=O)CCOCCC(=O)N2CCC(n3cc(-c4cnc5cccc(-c6cc(F)c(CN7CCOCC7)c(F)c6)c5n4)cn3)CC2)C(C)(C)C)cc1` [JA-058, (2S,4R)-1-[(2S)-2-[3-[3-[4-[4-[8-[3,5-Difluoro-4-(morpholinomethyl)phenyl]quinoxalin-2-yl]pyrazol-1-yl]-1-piperidyl]-3-oxo-propoxy]propanoylamino]-3,3-dimethyl-butanoyl]-4-hydroxy-N-[[4-(4-methylthiazol-5-yl)phenyl]methyl]pyrrolidine-2-carboxamide], for which the IC50 is 2.52 µM.

As to `Cc1ncsc1-c1ccc(CNC(=O)[C@@H]2C[C@@H](O)CN2C(=O)[C@@H](NC(=O)CCCCCCCCCC(=O)N2CCC(n3cc(-c4cnc5cccc(-c6cc(F)c(CN7CCOCC7)c(F)c6)c5n4)cn3)CC2)C(C)(C)C)cc1` [JA-059, (2S,4R)-1-[(2S)-2-[[11-[4-[4-[8-[3,5-Difluoro-4-(morpholinomethyl)phenyl]quinoxalin-2-yl]pyrazol-1-yl]-1-piperidyl]-11-oxo-undecanoyl]amino]-3,3-dimethyl-butanoyl]-4-hydroxy-N-[[4-(4-methylthiazol-5-yl)phenyl]methyl]pyrrolidine-2-carboxamide], the half-inhibitory concentration (IC50) is more than 10 µM.

For `Cc1ncsc1-c1ccc(CNC(=O)[C@@H]2C[C@@H](O)CN2C(=O)[C@@H](NC(=O)CCC(=O)N2CCC(n3cc(-c4cnc5cccc(-c6cc(F)c(CN7CCOCC7)c(F)c6)c5n4)cn3)CC2)C(C)(C)C)cc1` [JA-060, (2S,4R)-1-[(2S)-2-[[4-[4-[4-[8-[3,5-Difluoro-4-(morpholinomethyl)phenyl]quinoxalin-2-yl]pyrazol-1-yl]-1-piperidyl]-4-oxo-butanoyl]amino]-3,3-dimethyl-butanoyl]-4-hydroxy-N-[[4-(4-methylthiazol-5-yl)phenyl]methyl]pyrrolidine-2-carboxamide], the half-maximal inhibitory concentration (IC50) is more than 10 µM.

As for `Cc1ncsc1-c1ccc(CNC(=O)[C@@H]2C[C@@H](O)CN2C(=O)[C@@H](NC(=O)CCOCCOCCOCCOCCC(=O)N2CCC(n3cc(-c4cnc5cccc(-c6cc(F)c(CN7CCOCC7)c(F)c6)c5n4)cn3)CC2)C(C)(C)C)cc1` [JA-061, (2S,4R)-1-[(2S)-2-[3-[2-[2-[2-[3-[4-[4-[8-[3,5-Difluoro-4-(morpholinomethyl)phenyl]quinoxalin-2-yl]pyrazol-1-yl]-1-piperidyl]-3-oxo-propoxy]ethoxy]ethoxy]ethoxy]propanoylamino]-3,3-dimethyl-butanoyl]-4-hydroxy-N-[[4-(4-methylthiazol-5-yl)phenyl]methyl]pyrrolidine-2-carboxamide], the IC50 was more than 10 µM.

The values are drawn from US20230093099A1, “COMPOUNDS AND METHODS OF TREATING CANCERS” (CULLGEN (SHANGHAI), INC., priority 2019, published 2023).
